Experimental findings from patent US4108724A, “Method for preparing antibiotic P-2563 using Pseudomonas fluorescens” (Takeda Chemical Industries, Ltd., priority 1975, dated 1978) are described below.

Data set [1] is described as follows: Stability against pH. The format is physicochemical. As to conditions: outside the stable pH range.
In data set [2] the test system is Pseudomonas aeruginosa. As to the kind of experiment: Antimicrobial spectrum, minimal inhibitory concentration (Procedure I). The format is cell-based. The following applies: Procedure I: heart infusion agar, 37° C, 24 hours. On the procedure: (§1) In the table, procedures I to III mean the following:
(§2) Procedure I : Cultivated on heart infusion agar medium (Difco) at 37° C for 24 hours.

Data set [3] deals with Proteus vulgaris. The description is as above. The class given is cell-based. As to conditions: Procedure I: heart infusion agar, 37° C, 24 hours. As to the method:
as §1, §2

Data set [4] relates to Klebsiella pneumoniae. Described as above. The following applies: Procedure I: heart infusion agar, 37° C, 24 hours. The class given is cell-based. As to the method: as §1, §2
The subject of data set [5] is Escherichia coli. Described as above. The format is cell-based. As to conditions: Procedure I: heart infusion agar, 37° C, 24 hours. As to the method:
as §1, §2

For data set [6], the system named is Proteus mirabilis. Described as above. The format is cell-based. The following applies: Procedure I: heart infusion agar, 37° C, 24 hours. On the procedure:
as §1, §2

Data set [7] concerns Bacillus subtilis. The description is as above. As to conditions: Procedure I: heart infusion agar, 37° C, 24 hours. The format is cell-based. As to the method:
as §1, §2

The subject of data set [8] is Staphylococcus aureus. The data set is described as above. The following applies: Procedure I: heart infusion agar, 37° C, 24 hours. The format is cell-based. On the procedure: as §1, §2
Data set [9] has as its system Mycobacterium species. Put plainly: Antimicrobial spectrum, minimal inhibitory concentration (Procedure II). The class given is cell-based. The following applies: Procedure II: heart infusion agar with 1 % added glycerin, 37° C, 48 hours. On the procedure:
as §1
(§3) Procedure II : Cultivated on heart infusion agar medium with 1 % added glycerin at 37° C for 48 hours.

Data set [10] is described as follows: Toxicity (general statement).
Data set [11] concerns gram-positive and gram-negative bacteria. As to the kind of experiment: Antimicrobial spectrum (general statement). The format is cell-based. On the procedure: as §2, §3
(§4) Procedure III : Cultivated on glucose bouillon agar medium at 28° C for 96 hours.

Data set [12] has as its system Microsporum gypseum. As to the kind of experiment: Antimicrobial spectrum, minimal inhibitory concentration (Procedure III). The format is cell-based. As to conditions: Nannizzia gypsea; Procedure III: glucose bouillon agar, 28° C, 96 hours. On the procedure:
as §1, §4

The subject of data set [13] is Trichophyton mentagrophytes. Described as above. The format is cell-based. As to conditions: Procedure III: glucose bouillon agar, 28° C, 96 hours. As to the method:
as §1, §4

The subject of data set [14] is Candida albicans. Described as above. The class given is cell-based. The following applies: Procedure III: glucose bouillon agar, 28° C, 96 hours. On the procedure: as §1, §4
The test system of data set [15] is Asperigillus fumigatus. The description is as above. The class given is cell-based. As to conditions: Procedure III: glucose bouillon agar, 28° C, 96 hours. As to the method:
as §1, §4

For data set [16], the system named is Cryptococcus neoformans. The description is as above. The class given is cell-based. The following applies: Procedure III: glucose bouillon agar, 28° C, 96 hours. As to the method: as §1, §4
Data set [17] in a line: Acute toxicity in mice (intravenous). The class given is in vivo. As to conditions: for LD50: mouse, in vivo.
A short description of data set [18]: Solubilities. The format is physicochemical. The following applies: for Solubilities: insoluble: insoluble solvents; for Solubilities: readily soluble: readily soluble solvents; for Solubilities: sparingly soluble: sparingly soluble solvents.
Data set [19] concerns bacteria of the genus Pseudomonas. As to the kind of experiment: Antimicrobial spectrum (general statement). The format is cell-based. As to the method:
as §2

One may read the MIC as the lowest concentration that inhibits growth of the organism. A lower MIC goes with inhibition by little substance. One may read the LD50 as the dose expected to kill half of the subjects tested. Lower therefore signals greater toxicity.

Each structure is given as a SMILES string. ≈ marks a conversion by molar mass, not a printed value. Entries after “also recorded” stand apart in the source; their conditions may differ. Where a name gives a salt, the structure may show the parent alone. A value given as a limit tells only on which side of the number the result lay.

As to `CCC(=O)N[C@H]1[C@H](O)[C@@H](O)C(OC(C(O)CN)C(N)C(O)CO)O[C@@H]1CO` (stereo partly drawn) [P-2563 (I)], in [1], the “Stability: decomposition” value is “decomposes gradually with a loss of activity under strongly basic (above pH 8) and strongly acidic (below pH 3) conditions”. In addition, the MIC amounted to 50 µg/mL (≈ 126 µM) in [2]; 30 µg/mL (≈ 75.5 µM) in data set [3]; 12.5 µg/mL (≈ 31.5 µM) in [4]; 30 µg/mL (≈ 75.5 µM) in data set [5]; 200 µg/mL (≈ 503 µM) in [6]; 30 µg/mL (≈ 75.5 µM) in [7]. Moreover, the MIC was 50 µg/mL (≈ 126 µM) in data set [8]; 200 µg/mL (≈ 503 µM) in data set [9]; over 500 µg/mL in data set [12]; over 500 µg/mL in data set [13]; over 500 µg/mL in data set [14]; over 500 µg/mL in [15]. The same compound showed an MIC in data set [16] of over 500 µg/mL. The toxicity entry in data set [10] was “low toxicity”; in [17] it was “extremely low in toxicity”. The antimicrobial spectrum entry in data set [11] is “broad antimicrobial spectrum, especially against gram-positive and gram-neg ative bacteria; also recorded: inhibitory to gram-positive and gram-negative bacteria”. Also, the LD50 in data set [17] was over 400 mg/kg. For the same compound, the “Solubilities: insoluble” value in data set [18] is “insoluble in chloroform, ethyl acetate, ether, n-hexane and petroleum ether”. The “Solubilities: readily soluble” value in [18] was “Readily soluble in water, methanol and ethanol”. In addition, the “Solubilities: sparingly soluble” value in data set [18] is “sparingly soluble in n-propanol, butanol and acetone”. The “solubility in water (general statement)” value in data set [18] is on record as “water-soluble”. Also, in data set [19], the “inhibitory to bacteria of the genus Pseudomonas” value is listed as “particularly to bacteria of the genus Pseudomonas”.
Take `CC(=O)N[C@H]1[C@H](O)[C@@H](O)C(OC(C(O)CN)C(N)C(O)CO)O[C@@H]1CO` (stereo partly drawn) [P-2563 (II)]: the “Stability: decomposition” value in data set [1] is “decmposes gradually with a loss of activity under strongly basic (above pH 8) and strongly acidic (below pH 3) conditions”. For the same compound, the MIC in data set [2] was 300 µg/mL (≈ 782 µM); in data set [3] it was 100 µg/mL (≈ 261 µM); in [4], 50 µg/mL (≈ 130 µM); in data set [5], 50 µg/mL (≈ 130 µM); in data set [6], 200 µg/mL (≈ 522 µM); in data set [7], 70 µg/mL (≈ 183 µM). For the same compound, the MIC in data set [8] was 200 µg/mL (≈ 522 µM); in data set [9], 200 µg/mL (≈ 522 µM); in data set [12], over 500 µg/mL; in data set [13] it was over 500 µg/mL; in [14], over 500 µg/mL; in data set [15] it was over 500 µg/mL. In [16], this compound gave an MIC of over 500 µg/mL. Moreover, the toxicity entry in [10] is listed as “low toxicity”; in data set [17], “extremely low in toxicity”. For the same compound, the antimicrobial spectrum result in [11] was “broad antimicrobial spectrum, especially against gram-positive and gram-neg ative bacteria; also recorded: inhibitory to gram-positive and gram-negative bacteria”. The same compound registered an LD50 in data set [17] of over 400 mg/kg. Besides, in data set [18], the “Solubilities: insoluble” value was “insoluble in chloroform, ethyl acetate, ether, n-hexane and petroleum ether”. Further, in data set [18], the “Solubilities: readily soluble” value is “Readily soluble in water and methanol”. In addition, the “Solubilities: sparingly soluble” value in [18] was “sparingly soluble in ethanol, n-propanol, butanol and acetone”. Moreover, in data set [18], the “solubility in water (general statement)” value was “water-soluble”. For the same compound, in [19], the “inhibitory to bacteria of the genus Pseudomonas” value is on record as “particularly to bacteria of the genus Pseudomonas”.
Regarding `NCC(O)C(OC1O[C@H](CO)[C@@H](N)[C@H](O)[C@H]1O)C(N)C(O)CO` (stereo partly drawn) [P-2563 (III)], the “Stability: decomposition” value in [1] is “decomposes gradually under strongly acidic (below pH 3) and strongly basic (above pH 13) conditions”. Moreover, the toxicity result in data set [10] is “low toxicity”. The antimicrobial spectrum result in data set [11] was “broad antimicrobial spectrum, especially against gram-positive and gram-neg ative bacteria”. In [18], the “Solubilities: insoluble” value is “insoluble in chloroform, ethylacetate, ether, n-hexane and petroleum ether”; the “Solubilities: readily soluble” value was “Readily soluble in water and methanol”; the “Solubilities: sparingly soluble” value was “sparingly soluble in ethanol, n-propanol, butanol and acetone”; the “solubility in water (general statement)” value was “water-soluble”.
Consider `CCC(=O)N[C@H]1[C@H](O)[C@@H](O)C(OC(C(O)CN)C(N)C(O)CO)O[C@@H]1CO` (stereo partly drawn) [P-2563 (I) monohydrochloric acid salt], for which the “Stability: decomposition” value in [1] was “decomposes gradually with a loss of activity under strongly basic (above pH 8) and strongly acidic (below pH 3) conditions”. Moreover, in [18], the “Solubilities: insoluble” value was “insoluble in chloroform, ethyl acetate, ether, n-hexane and petroleum ether”; the “Solubilities: readily soluble” value is “Readily soluble in water and methanol”; the “Solubilities: sparingly soluble” value is “sparingly soluble in ethanol, n-propanol, butanol and acetone”.
